Source: ChEMBL document CHEMBL1275379, “Indazolylpyrazolopyrimidine as highly potent B-Raf inhibitors with in vivo activity” (J Med Chem, 2010)
Active and inactive are the calls of the source. The rule behind the calls is not given here.

Experiments:
A-375 = experiment: Growth inhibition of human A375 cells after 4 days by MTT assay; type: functional, cell-based; conditions: A-375, 96 h
[1] = molecular target: Serine/threonine-protein kinase B-raf (Homo sapiens, UniProt P15056); experiment: Inhibition of BRAF
Sequence of Serine/threonine-protein kinase B-raf (P15056 whole entry): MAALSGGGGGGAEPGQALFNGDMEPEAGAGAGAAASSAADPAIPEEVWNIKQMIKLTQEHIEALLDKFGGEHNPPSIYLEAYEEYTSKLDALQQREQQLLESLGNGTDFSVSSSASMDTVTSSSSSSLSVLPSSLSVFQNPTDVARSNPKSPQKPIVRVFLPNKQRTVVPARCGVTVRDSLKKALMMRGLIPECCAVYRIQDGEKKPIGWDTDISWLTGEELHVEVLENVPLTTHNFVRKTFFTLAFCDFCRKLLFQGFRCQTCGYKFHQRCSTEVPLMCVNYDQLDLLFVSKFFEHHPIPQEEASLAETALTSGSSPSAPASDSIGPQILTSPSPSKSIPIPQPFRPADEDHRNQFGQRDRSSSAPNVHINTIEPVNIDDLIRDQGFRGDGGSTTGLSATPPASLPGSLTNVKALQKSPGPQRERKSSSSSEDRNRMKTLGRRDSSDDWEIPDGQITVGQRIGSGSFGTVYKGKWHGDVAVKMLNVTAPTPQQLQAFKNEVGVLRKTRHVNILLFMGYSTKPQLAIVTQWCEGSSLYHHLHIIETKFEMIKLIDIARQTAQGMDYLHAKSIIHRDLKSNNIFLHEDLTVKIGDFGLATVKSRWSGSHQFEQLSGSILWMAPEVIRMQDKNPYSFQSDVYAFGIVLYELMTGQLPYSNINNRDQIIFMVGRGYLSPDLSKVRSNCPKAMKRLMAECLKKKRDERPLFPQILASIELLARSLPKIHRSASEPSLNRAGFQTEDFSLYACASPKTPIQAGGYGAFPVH

[2] = Half life in human liver microsomes; type: ADME, Microsome
[3] = Half life in nude mouse liver microsomes; type: ADME, Microsome
[4] = test system: Serine/threonine-protein kinase B-raf (Homo sapiens), P15056 [V600E]; experiment: Inhibition of BRAF V600E mutant in human A375 cells assessed as reduction of ERK phosphorylation; type: cell-based; conditions: A-375
Sequence of Serine/threonine-protein kinase B-raf (Homo sapiens), P15056 [V600E] (P15056 whole entry V600E): as the sequence (P15056 whole entry) above, with V600E counted along it

| Compound | IC50 (A-375) | IC50 [1] | half-life [2] | half-life [3] | inhibition [4] |
| --- | --- | --- | --- | --- | --- |
| CN1C[C@@H]2C[C@H]1CN2c1ccc(-c2ccnc3c(-c4cccc5[nH]ncc45)c(-c4ccncc4)nn23)c(F)c1F | 107 nM | 0.61 nM | – | – | – |
| CN(C)c1cc(N2C[C@@H]3C[C@H]2CN3C)ccc1-c1ccnc2c(-c3cccc4[nH]ncc34)c(-c3ccncc3)nn12 | 1850 nM | – | – | – | – |
| CN1C[C@@H]2C[C@H]1CN2c1ccc(-c2ccnc3c(-c4cccc5[nH]ncc45)c(-c4ccncc4)nn23)c2ccccc12 | 25000 nM | 1 nM | – | – | – |
| CC(C)N1C[C@@H]2C[C@H]1CN2c1cc(F)c(-c2ccnc3c(-c4cccc5[nH]ncc45)c(-c4ccncc4)nn23)c(F)c1 | 55 nM | < 0.32 nM | 5 min | 17 min | – |
| CN1C[C@@H]2C[C@H]1CN2c1c(F)c(F)c(-c2ccnc3c(-c4cccc5[nH]ncc45)c(-c4ccncc4)nn23)c(F)c1F | 70 nM | 0.35 nM | – | – | – |
| CN1C[C@@H]2C[C@H]1CN2c1ccc(-c2ccnc3c(-c4cccc(O)c4)c(-c4ccncc4)nn23)cc1 | 77 nM | – | – | – | Active |
| CC(C)CN1C[C@@H]2C[C@H]1CN2c1cc(F)c(-c2ccnc3c(-c4cccc5[nH]ncc45)c(-c4ccncc4)nn23)c(F)c1 | 89 nM | < 0.32 nM | 3 min | 4 min | – |
| CN1C[C@@H]2CC[C@H]1CN2c1ccc(-c2ccnc3c(-c4cccc5[nH]ncc45)c(-c4ccncc4)nn23)cc1 | 185 nM | 0.71 nM | – | – | – |
| Fc1cc(CN2C[C@@H]3C[C@H]2CO3)ccc1-c1ccnc2c(-c3cccc4[nH]ncc34)c(-c3ccncc3)nn12 | 268 nM | 1.2 nM | – | – | – |
| Cc1cc(N2C[C@@H]3C[C@H]2CN3C)ccc1-c1ccnc2c(-c3cccc4[nH]ncc34)c(-c3ccncc3)nn12 | 137 nM | 0.51 nM | – | – | – |
| Fc1cc(N2C[C@@H]3C[C@H]2CN3C2CCC2)cc(F)c1-c1ccnc2c(-c3cccc4[nH]ncc34)c(-c3ccncc3)nn12 | 78 nM | < 0.32 nM | 3 min | 5 min | – |
| CCN1C[C@@H]2C[C@H]1CN2c1cc(F)c(-c2ccnc3c(-c4cccc5[nH]ncc45)c(-c4ccncc4)nn23)c(F)c1 | 56 nM | < 0.32 nM | 11 min | – | – |
| CN1C[C@@H]2C[C@H]1CN2c1cccc(-c2ccnc3c(-c4cccc5[nH]ncc45)c(-c4ccncc4)nn23)c1 | 1400 nM | – | – | – | – |
| CN1C[C@@H]2C[C@H]1CN2c1ccc(-c2ccnc3c(-c4cccc5[nH]ncc45)c(-c4ccncc4)nn23)c(Cl)c1 | 39 nM | < 0.1 nM | – | – | – |
| CN1C[C@@H]2CC[C@H]1CN2c1ccc(-c2ccnc3c(-c4cccc5[nH]ncc45)c(-c4ccncc4)nn23)c(F)c1 | 118 nM | 0.41 nM | – | – | – |
| CN1C[C@@H]2C[C@H]1CN2c1ccc(-c2ccnc3c(-c4cccc5[nH]ncc45)c(-c4ccncc4)nn23)cc1 | 202 nM | 1.2 nM | – | – | – |
| Fc1cc(CN2C3COCC2COC3)ccc1-c1ccnc2c(-c3cccc4[nH]ncc34)c(-c3ccncc3)nn12 | 304 nM | 0.77 nM | – | – | – |
| CN1C[C@@H]2C[C@H]1CN2c1cc(F)c(-c2ccnc3c(-c4ccc(F)c5[nH]ncc45)c(-c4ccncc4)nn23)c(F)c1 | 17 nM | 0.11 nM | – | – | – |
| Cc1cc(N2C[C@@H]3C[C@H]2CN3C)ccc1-c1ccnc2c(-c3ccc(F)c4[nH]ncc34)c(-c3ccncc3)nn12 | 188 nM | < 0.32 nM | – | – | – |
| CN1C[C@@H]2C[C@H]1CN2c1ccc(-c2ccnc3c(-c4cccc5[nH]ncc45)c(-c4ccncc4)nn23)cc1C(F)(F)F | 273 nM | – | – | – | – |
| CN1C[C@@H]2C[C@H]1CN2c1ccc(-c2ccnc3c(-c4ccc(F)c5[nH]ncc45)c(-c4ccncc4)nn23)c(F)c1 | 33 nM | < 0.1 nM | – | – | – |
| c1cc(-c2c(-c3ccncc3)nn3c(-c4ccc(CN5C[C@@H]6C[C@H]5CO6)cc4)ccnc23)c2cn[nH]c2c1 | 945 nM | – | – | – | – |
| CN1C[C@@H]2C[C@H]1CN2c1ccc(-c2ccnc3c(-c4cccc5[nH]ncc45)c(-c4ccncc4)nn23)c(F)c1 | 44 nM | 0.23 nM | 17 min | > 30 min | Active |
| CN1C[C@@H]2C[C@H]1CN2c1ccc(-c2ccnc3c(-c4cccc5[nH]ncc45)c(-c4ccncc4)nn23)c(Br)c1 | – | < 0.32 nM | – | – | – |
| CN1C[C@@H]2C[C@H]1CN2c1c(F)cc(-c2ccnc3c(-c4cccc5[nH]ncc45)c(-c4ccncc4)nn23)cc1F | 1250 nM | – | – | – | – |
| CN1C[C@@H]2C[C@H]1CN2c1ccc(-c2ccnc3c(-c4ccc(F)c5[nH]ncc45)c(-c4ccncc4)nn23)cc1 | 68 nM | 0.5 nM | – | – | – |
| CN1C[C@@H]2C[C@H]1CN2c1cc(F)c(-c2ccnc3c(-c4cccc5[nH]ncc45)c(-c4ccncc4)nn23)cc1F | 87 nM | 0.38 nM | – | – | – |
| c1cc(-c2c(-c3ccncc3)nn3c(-c4ccc(CN5C[C@@H]6C[C@H]5CN6)cc4)ccnc23)c2cn[nH]c2c1 | 9480 nM | 2.3 nM | – | – | – |
| Fc1cc(CN2C[C@H]3C[C@@H]2CO3)ccc1-c1ccnc2c(-c3cccc4[nH]ncc34)c(-c3ccncc3)nn12 | 78 nM | 0.52 nM | – | – | – |
